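A five-concentration, 48-hour dose response in 96-well plates underlies each endpoint, interpolated linearly between surrounding concentrations. Here, GI50 denotes the concentration required for 50% inhibition of growth.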 Active and inactive are the calls of the source. Cut-off read from the data, not from the text of the source: active = GI50 up to about 1.1 µM and inactive = higher.
Key:
Assay in all cases: NCI tumour cell line growth inhibition, 48 h
ACHN = test system: ACHN
CAKI-1 = test system: CAKI-1
Hs-578T = test system: Hs-578T
LOX IMVI = test system: LOX IMVI
M14 = test system: M14
MCF7 = test system: MCF7
MOLT-4 = test system: MOLT-4
Malme-3M = test system: Malme-3M
NCI-H226 = test system: NCI-H226
PC-3 = test system: PC-3
RXF 393 = test system: RXF 393
SF-268 = test system: SF-268
SF-295 = test system: SF-295
SF-539 = test system: SF-539
SK-MEL-5 = test system: SK-MEL-5
SK-OV-3 = test system: SK-OV-3
SW-620 = test system: SW-620
U-251 = test system: U-251
UO-31 = test system: UO-31

Measured: GI50

O=C(O)c1nc2nc(Cl)c(Cl)nc2[nH]1
inactive: ACHN > 100 µM | CAKI-1 > 100 µM | Hs-578T > 100 µM | LOX IMVI > 100 µM | M14 > 100 µM | MCF7 > 100 µM | MOLT-4 > 100 µM | Malme-3M > 100 µM | NCI-H226 > 100 µM | PC-3 > 100 µM | RXF 393 > 100 µM | SF-268 > 100 µM | SF-295 > 100 µM | SF-539 > 100 µM | SK-MEL-5 > 100 µM | SK-OV-3 > 100 µM | SW-620 > 100 µM | U-251 > 100 µM

CCOC(=O)C1=C(C)NC(=O)NC1c1ccc(N(CCCl)CCCl)cc1Cl (centres undefined)
inactive: ACHN 14.5 µM | CAKI-1 17.2 µM | Hs-578T 17.1 µM | LOX IMVI 15.9 µM | M14 15.8 µM | MCF7 13.6 µM | Malme-3M 14.9 µM | NCI-H226 15.2 µM | PC-3 15.2 µM | RXF 393 17.1 µM | SF-268 15.5 µM | SF-295 15.8 µM | SF-539 17.2 µM | SK-MEL-5 14.7 µM | SK-OV-3 17.3 µM | SW-620 17.9 µM | U-251 16.6 µM | UO-31 14.3 µM

O=S(=O)(O)c1ccc2c(/N=N/c3c(O)ccc4ccccc34)cccc2c1
inactive: ACHN > 100 µM | CAKI-1 > 100 µM | Hs-578T > 100 µM | LOX IMVI > 100 µM | M14 > 100 µM | MCF7 > 100 µM | Malme-3M > 100 µM | NCI-H226 > 100 µM | PC-3 > 100 µM | RXF 393 > 100 µM | SF-268 > 100 µM | SF-295 > 100 µM | SF-539 > 100 µM | SK-MEL-5 > 100 µM | SK-OV-3 > 100 µM | SW-620 > 100 µM | U-251 > 100 µM | UO-31 > 100 µM

CCCCCCCCCCCCCCCC(=O)OCC(COP(=O)(O)OCCNC(=O)CCSSc1ccccn1)OC(=O)CCCCCCCCCCCCCCC (centres undefined)
inactive: ACHN > 100 µM | CAKI-1 > 100 µM | Hs-578T > 100 µM | M14 > 100 µM | MCF7 > 100 µM | MOLT-4 > 100 µM | Malme-3M > 100 µM | NCI-H226 > 100 µM | PC-3 > 100 µM | RXF 393 > 100 µM | SF-268 > 100 µM | SF-295 > 100 µM | SF-539 > 100 µM | SK-MEL-5 > 100 µM | SK-OV-3 > 100 µM | SW-620 > 100 µM | U-251 > 100 µM | UO-31 > 100 µM

O=C(OC1CN2CCC1CC2)N(c1ccccc1)c1ccccc1 (centres undefined)
inactive: ACHN > 100 µM | CAKI-1 > 100 µM | Hs-578T > 100 µM | LOX IMVI 38.5 µM | M14 22.9 µM | MCF7 74.8 µM | MOLT-4 43.1 µM | Malme-3M > 100 µM | NCI-H226 > 100 µM | PC-3 69.2 µM | RXF 393 50.1 µM | SF-268 > 100 µM | SF-295 51.1 µM | SF-539 68.4 µM | SK-MEL-5 29.4 µM | SK-OV-3 > 100 µM | U-251 > 100 µM | UO-31 86.9 µM

O=C(c1ccc([N+](=O)[O-])cc1)C(Br)C(Br)c1ccnc2ccccc12 (centres undefined)
inactive: ACHN 4.61 µM | CAKI-1 12.2 µM | Hs-578T 6.15 µM | LOX IMVI 2.11 µM | M14 2.8 µM | MCF7 2.39 µM | MOLT-4 2.94 µM | Malme-3M 12.5 µM | NCI-H226 10.9 µM | PC-3 7.29 µM | RXF 393 8.93 µM | SF-268 13 µM | SF-295 9.06 µM | SF-539 6.4 µM | SK-MEL-5 6.34 µM | SK-OV-3 17.8 µM | SW-620 2.09 µM | U-251 1.75 µM | UO-31 1.77 µM

— ChEMBL document CHEMBL1201862, “PubChem BioAssay data set” (2004)
